What is called IC50 is the concentration needed to halve the response being measured. A high value points to a need for much substance.

We go through 14 molecules from patent publication US5604234A, “Substituted thiol macrolactam immunomodulators” (Abbott Laboratories, priority 1995, dated 1997).

This test relates to human mixed lymphocyte reaction (MLR). Briefly: human mixed lymphocyte reaction (MLR), serum free variation. The test is classed as cell-based. To be noted: Homo sapiens, Lymphocyte, serum-free medium AIM V, Table 3. On the procedure:
In vitro Assay of Biological Activity (Serum Free MLR)
The in viitro immunosuppressant activity of the compounds of the present invention can also be determined using a variation of the human mixed lymphocyte reaction (MLR) assay described by Kino, T. et al. in Transplantation Proceedings, XIX(5):36-39, Suppl. 6 (1987). In this assay, the cell culture was performed in a serum-free medium, AIM V (GibcoBRL Life Technologies, Grand Island, N.Y.), instead of the usual RPMI 1640 plus 10% heat-inactivated fetal bovine serum medium. The final cell concentrations of the responder and stimulator peripheral blood mononuclear cells were, respectively, 5×10^5/mL and 2×10^6/mL of cells pooled from four donors.

As to `CCC1C=C(C)CC(C)CC(OC)C2OC(O)(C(=O)C(=O)N3CCCCC3C(=O)OC(C(C)=CC3CCC(SCC(=O)OCCN(C)C)C(OC)C3)C(C)C(O)CC1=O)C(C)CC2OC` (centres unmarked) [Example 36], the IC50 amounted to 24.2 nM. The result for `CCC1C=C(C)CC(C)CC(OC)C2OC(O)(C(=O)C(=O)N3CCCCC3C(=O)OC(C(C)=CC3CCC(SCC(=O)OCCOCc4ccccc4)C(OC)C3)C(C)C(O)CC1=O)C(C)CC2OC` (centres unmarked) [Example 37] reads 16.4 nM. Next, `CCC1C=C(C)CC(C)CC(OC)C2OC(O)(C(=O)C(=O)N3CCCCC3C(=O)OC(C(C)=CC3CCC(SCC(=O)NO)C(OC)C3)C(C)C(O)CC1=O)C(C)CC2OC` (centres unmarked) [Example 38]: 7.5 nM; `CCC1C=C(C)CC(C)CC(OC)C2OC(O)(C(=O)C(=O)N3CCCCC3C(=O)OC(C(C)=CC3CCC(SCC(=O)N(C)O)C(OC)C3)C(C)C(O)CC1=O)C(C)CC2OC` (centres unmarked) [Example 39]: 4.8 nM; `CCC1C=C(C)CC(C)CC(OC)C2OC(O)(C(=O)C(=O)N3CCCCC3C(=O)OC(C(C)=CC3CCC(SCC(C)C(=O)OC)C(OC)C3)C(C)C(O)CC1=O)C(C)CC2OC` (centres unmarked) [Example 40]: 14.9 nM. The result for `CCOC(=O)C(C)CSC1CCC(C=C(C)C2OC(=O)C3CCCCN3C(=O)C(=O)C3(O)OC(C(OC)CC(C)CC(C)=CC(CC)C(=O)CC(O)C2C)C(OC)CC3C)CC1OC` (centres unmarked) [Example 41] reads 46.4 nM; that for `CCC1C=C(C)CC(C)CC(OC)C2OC(O)(C(=O)C(=O)N3CCCCC3C(=O)OC(C(C)=CC3CCC(SCC(C)C(=O)OCc4ccccc4)C(OC)C3)C(C)C(O)CC1=O)C(C)CC2OC` (centres unmarked) [Example 42], 63.4 nM; that for `CC[C@@H]1/C=C(\C)C[C@H](C)C[C@H](OC)[C@H]2O[C@@](O)(C(=O)C(=O)N3CCCC[C@H]3C(=O)O[C@H](/C(C)=C/[C@@H]3CC[C@H](SCC(C)C(=O)O)[C@H](OC)C3)[C@H](C)[C@@H](O)CC1=O)[C@H](C)C[C@@H]2OC` (some centres unmarked) [Example 43], 22.6 nM. For `CC[C@@H]1/C=C(\C)C[C@H](C)C[C@H](OC)[C@H]2O[C@@](O)(C(=O)C(=O)N3CCCC[C@H]3C(=O)O[C@H](/C(C)=C/[C@@H]3CC[C@H]([S+]([O-])c4ccc(O)cc4)[C@H](OC)C3)[C@H](C)[C@@H](O)CC1=O)[C@H](C)C[C@@H]2OC` (some centres unmarked) [Example 48], the IC50 was found to be 0.9 nM. As for `CC[C@@H]1/C=C(\C)C[C@H](C)C[C@H](OC)[C@H]2O[C@@](O)(C(=O)C(=O)N3CCCC[C@H]3C(=O)O[C@H](/C(C)=C/[C@@H]3CC[C@H](S(=O)(=O)c4ccc(O)cc4)[C@H](OC)C3)[C@H](C)[C@@H](O)CC1=O)[C@H](C)C[C@@H]2OC` [Example 49], half-maximal inhibition (IC50) required 2.5 nM. The result for `CC[C@@H]1/C=C(\C)C[C@H](C)C[C@H](OC)[C@H]2O[C@@](O)(C(=O)C(=O)N3CCCC[C@H]3C(=O)O[C@H](/C(C)=C/[C@@H]3CC[C@H]([S+]([O-])CCO)[C@H](OC)C3)[C@H](C)[C@@H](O)CC1=O)[C@H](C)C[C@@H]2OC` (some centres unmarked) [Example 50] reads 0.24 nM; that for `CC[C@@H]1/C=C(\C)C[C@H](C)C[C@H](OC)[C@H]2O[C@@](O)(C(=O)C(=O)N3CCCC[C@H]3C(=O)O[C@H](/C(C)=C/[C@@H]3CC[C@H](S(=O)(=O)CCO)[C@H](OC)C3)[C@H](C)[C@@H](O)CC1=O)[C@H](C)C[C@@H]2OC` [Example 51], 0.17 nM. The molecule `CC[C@@H]1/C=C(\C)C[C@H](C)C[C@H](OC)[C@H]2O[C@@](O)(C(=O)C(=O)N3CCCC[C@H]3C(=O)O[C@H](/C(C)=C/[C@@H]3CC[C@H]([S+]([O-])CCCO)[C@H](OC)C3)[C@H](C)[C@@H](O)CC1=O)[C@H](C)C[C@@H]2OC` (some centres unmarked) [Example 52] yielded an IC50 of 1.8 nM. The result for `CC[C@@H]1/C=C(\C)C[C@H](C)C[C@H](OC)[C@H]2O[C@@](O)(C(=O)C(=O)N3CCCC[C@H]3C(=O)O[C@H](/C(C)=C/[C@@H]3CC[C@H](S(=O)(=O)CCCO)[C@H](OC)C3)[C@H](C)[C@@H](O)CC1=O)[C@H](C)C[C@@H]2OC` [Example 53] reads 0.04 nM.
